Assay results taken from the supplement of paper PMC10307832.

Experiments:
Experiment in all cases: relative viability (nuclei count vs DMSO), 5 days (fraction); higher = more cells survive
[1] = compound: CN(C)C[C@@H]1CCn2cc(c3ccccc32)C2=C(C(=O)NC2=O)c2cn(c3ccccc23)CCO1 [Ruboxistaurin] + CC(=O)Nc1cccc(-n2c(=O)n(C3CC3)c(=O)c3c(Nc4ccc(I)cc4F)n(C)c(=O)c(C)c32)c1 [Trametinib] (partner 0.02 µM)
Procedure, shortened: (§1)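 Lung cancer cell lines in 1536-well plates got either a single drug or a fixed anchor-drug dose together with five library-drug doses (not always all listed) in √10 steps, by pin tool, on the day after seeding. Nuclei were counted after 5 days, and relative viability is the treated-to-vehicle ratio of nuclei counts. Values are medians of duplicate plates.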

[2] = compound: CN(C)C[C@@H]1CCn2cc(c3ccccc32)C2=C(C(=O)NC2=O)c2cn(c3ccccc23)CCO1 [Ruboxistaurin] + CC1(C)CCC(c2ccc(Cl)cc2)=C(CN2CCN(c3ccc(C(=O)NS(=O)(=O)c4ccc(N[C@H](CCN5CCOCC5)CSc5ccccc5)c(S(=O)(=O)C(F)(F)F)c4)cc3)CC2)C1 [Navitoclax] (partner 0.5 µM)
Procedure, shortened: as §1

[3] = compound: CN(C)C[C@@H]1CCn2cc(c3ccccc32)C2=C(C(=O)NC2=O)c2cn(c3ccccc23)CCO1 [Ruboxistaurin] + COc1cc2c(Oc3ccc(NC(=O)C4(C(=O)Nc5ccc(F)cc5)CC4)cc3F)ccnc2cc1OCCCN1CCOCC1 [Foretinib] (partner 0.25 µM)
Procedure, shortened: as §1

[4] = compound: CN(C)C[C@@H]1CCn2cc(c3ccccc32)C2=C(C(=O)NC2=O)c2cn(c3ccccc23)CCO1 [Ruboxistaurin] + CS(=O)(=O)CCNCc1ccc(-c2ccc3ncnc(Nc4ccc(OCc5cccc(F)c5)c(Cl)c4)c3c2)o1 [Lapatinib] (partner 2 µM)
Procedure, shortened: as §1

[5] = compound: CN(C)C[C@@H]1CCn2cc(c3ccccc32)C2=C(C(=O)NC2=O)c2cn(c3ccccc23)CCO1 [Ruboxistaurin] + Cc1nc(Nc2ncc(C(=O)Nc3c(C)cccc3Cl)s2)cc(N2CCN(CCO)CC2)n1 [Dasatinib] (partner 0.075 µM)
Procedure, shortened: as §1

Cell Line | relative viability ([1]; first compound 0.08 µM) | relative viability ([1]; first compound 0.8 µM) | relative viability ([1]; first compound 2.53 µM) | relative viability ([1]; first compound 8 µM) | relative viability ([2]; first compound 0.08 µM) | relative viability ([2]; first compound 0.8 µM) | relative viability ([2]; first compound 2.53 µM) | relative viability ([2]; first compound 8 µM) | relative viability ([3]; first compound 0.08 µM) | relative viability ([3]; first compound 0.8 µM) | relative viability ([3]; first compound 2.53 µM) | relative viability ([3]; first compound 8 µM) | relative viability ([4]; first compound 0.08 µM) | relative viability ([4]; first compound 0.8 µM) | relative viability ([4]; first compound 2.53 µM) | relative viability ([4]; first compound 8 µM) | relative viability ([5]; first compound 0.08 µM) | relative viability ([5]; first compound 0.8 µM) | relative viability ([5]; first compound 2.53 µM) | relative viability ([5]; first compound 8 µM)
LXF-289 | 0.653 | 0.631 | 0.66 | 0.684 | 0.967 | 0.928 | 0.931 | 1.04 | 1.01 | 0.895 | 0.966 | 1.04 | 0.914 | 0.88 | 0.886 | 0.864 | 0.243 | 0.206 | 0.273 | 0.22
NCI-H23 | 0.375 | 0.346 | 0.409 | 0.32 | 0.897 | 0.59 | 0.91 | 0.68 | 1 | 0.897 | 1.1 | 0.936 | 1.38 | 0.97 | 1.21 | 0.819 | 0.849 | 0.732 | 0.769 | 0.794
NCI-H322M | 0.538 | 0.477 | 0.535 | 0.404 | 1.2 | 1.09 | 1.24 | 1.19 | 0.947 | 0.922 | 0.981 | 0.627 | 0.589 | 0.54 | 0.543 | 0.543 | 0.265 | 0.267 | 0.257 | 0.228
NCI-H460 | 0.225 | 0.113 | 0.14 | 0.13 | 1.2 | 1.03 | 1.16 | 0.935 | 1.03 | 0.904 | 1.08 | 0.996 | 1.03 | 0.966 | 1.02 | 1.01 | 0.552 | 0.35 | 0.602 | 0.327
NCI-H520 | 0.831 | 0.627 | 0.808 | 0.617 | 1.24 | 0.984 | 1.19 | 0.955 | 0.628 | 0.693 | 1.05 | 0.786 | 0.904 | 0.772 | 0.867 | 0.864 | 0.195 | 0.157 | 0.176 | 0.129
NCI-H596 | 0.892 | 0.766 | 0.727 | 0.796 | 0.962 | 0.845 | 0.983 | 0.69 | 0.817 | 0.671 | 0.766 | 0.679 | 1.08 | 0.965 | 1.04 | 0.848 | 0.65 | 0.488 | 0.63 | 0.547
NCI-H647 | 0.568 | 0.374 | 0.473 | 0.431 | 1.23 | 1 | 1.17 | 1.2 | 1.27 | 0.832 | 1.19 | 1.32 | 1.06 | 0.97 | 1.08 | 0.815 | 0.185 | 0.127 | 0.149 | 0.154
NCI-H727 | 0.361 | 0.395 | 0.384 | 0.367 | 0.46 | 0.394 | 0.458 | 0.338 | 1.15 | 0.718 | 0.84 | 0.645 | 1.09 | 0.552 | 0.804 | 0.602 | 0.474 |  | 0.296 | 0.324
NCI-H838 | 0.58 | 0.461 | 0.513 | 0.504 | 1.38 | 1.05 | 1.3 | 0.979 | 1.13 | 0.923 | 1.19 | 0.998 | 1.07 | 0.813 | 0.929 | 0.875 | 0.327 | 0.209 | 0.286 | 0.326
NCI-H1355 | 0.462 | 0.361 | 0.394 | 0.357 | 1.09 | 0.853 | 0.897 | 0.813 | 1.02 | 0.862 | 1.02 | 0.82 | 1.06 | 0.916 | 0.933 | 0.814 | 0.774 | 0.614 | 0.638 | 0.464
NCI-H1395 | 1.15 | 0.846 | 0.988 | 1.09 | 1.12 | 1.03 | 1.2 | 1.06 | 0.993 | 0.904 | 1.02 | 0.911 | 1.01 | 1.06 | 1.2 | 0.879 | 0.444 | 0.427 | 0.386 | 0.372
NCI-H1437 | 0.517 | 0.526 | 0.577 | 0.477 | 1.11 | 1.05 | 1.15 | 1.11 | 1.29 | 1.21 | 1.37 | 1.38 | 0.934 | 0.675 | 0.751 | 0.819 | 0.438 | 0.367 | 0.326 | 0.392
NCI-H1650 | 0.698 | 0.447 | 0.613 | 0.571 | 1.09 | 1.2 | 1.34 | 1.2 | 1.66 | 1.01 | 1.31 | 1.09 | 1.03 | 0.694 | 1.09 | 0.829 | 0.418 | 0.273 | 0.331 | 0.254
NCI-H1651 | 0.891 | 0.736 | 0.805 | 0.858 | 1.08 | 0.827 | 1.05 | 1.11 | 1.04 | 0.772 | 0.794 | 0.841 | 0.828 | 0.697 | 0.843 | 0.717 | 0.436 | 0.339 | 0.356 | 0.435
NCI-H1666 | 0.903 | 0.795 | 0.865 | 0.877 | 1.12 | 0.679 | 1.1 | 0.931 | 0.986 | 0.919 | 0.894 | 0.871 | 0.596 | 0.529 | 0.783 | 0.659 | 0.82 | 0.844 | 0.764 | 0.92
NCI-H1734 | 0.724 | 0.613 | 0.691 | 0.58 | 0.964 | 0.671 | 0.857 | 0.745 | 0.852 | 0.783 | 0.922 | 0.683 | 1.1 | 0.984 | 1.11 | 0.445 | 0.559 | 0.39 | 0.437 | 0.347
NCI-H1755 | 0.804 | 0.713 | 0.744 | 0.771 | 1.05 | 0.934 | 0.963 | 0.962 | 0.907 | 0.903 | 0.908 | 0.888 | 1.05 | 1 | 1.01 | 1.07 | 0.455 | 0.387 | 0.402 | 0.346
NCI-H1793 | 0.444 |  | 0.497 | 0.517 | 0.503 | 0.382 | 0.468 | 0.604 | 0.637 | 0.576 | 0.652 | 0.687 | 0.845 | 0.641 | 0.909 | 0.841 | 0.371 | 0.377 | 0.442 | 0.506
NCI-H1915 | 0.324 | 0.292 | 0.303 | 0.285 | 0.811 | 0.752 | 0.765 | 0.867 | 1.05 | 1.03 | 1.02 | 0.899 | 1.02 | 0.918 | 0.891 | 0.967 | 0.308 | 0.286 | 0.267 | 0.224
NCI-H1944 | 0.402 | 0.312 | 0.395 | 0.358 | 1.08 | 1 | 1.04 | 1.09 | 0.933 | 0.844 | 0.856 | 0.719 | 0.874 | 0.71 | 0.731 | 0.819 | 0.209 | 0.204 | 0.205 | 0.189
NCI-H1975 | 0.573 | 0.336 | 0.416 | 0.331 | 1.2 | 1.04 | 1.25 | 0.996 | 0.979 | 1.03 | 1.05 | 0.856 | 0.93 | 0.821 | 0.906 | 0.826 | 0.381 | 0.278 | 0.291 | 0.257
NCI-H1993 | 0.486 | 0.43 | 0.51 | 0.467 | 1.08 | 0.919 | 0.994 | 0.689 | 0.941 | 0.623 | 0.905 | 0.691 | 0.837 | 0.789 | 0.848 | 0.808 | 0.78 | 0.422 | 0.561 | 0.555
NCI-H2009 | 0.328 | 0.234 | 0.258 | 0.239 | 1.21 | 1.16 | 1.18 | 1.17 | 1.29 | 1.22 | 1.28 | 1.24 | 1.02 | 0.956 | 0.931 | 1.13 | 0.341 | 0.225 | 0.267 | 0.225
NCI-H2023 | 0.668 | 0.491 | 0.47 | 0.405 | 0.973 | 0.837 | 0.947 | 0.89 | 1.22 |  | 0.787 | 0.693 | 0.862 | 0.679 | 0.913 | 0.628 | 0.579 | 0.453 | 0.523 | 0.439
NCI-H2085 | 0.67 | 0.538 | 0.64 | 0.502 | 1.27 | 1.1 | 1.27 | 1.26 | 0.878 | 0.757 | 1.28 | 1.12 | 0.902 | 0.76 | 0.754 | 0.721 | 0.204 | 0.254 | 0.294 | 0.219
NCI-H2087 | 0.202 | 0.135 | 0.205 | 0.186 | 1.24 | 0.866 | 1.17 | 0.957 | 1.2 | 0.934 | 1.07 | 0.876 | 0.952 | 1.02 | 1.25 | 1.1 | 0.889 | 0.783 | 0.835 | 0.701
NCI-H2126 | 0.617 | 0.552 | 0.617 | 0.541 | 0.914 | 0.78 | 0.844 | 0.794 | 1.14 | 1.13 | 1.2 | 1.12 | 0.751 | 0.703 | 0.774 | 0.73 | 0.697 | 0.557 | 0.611 | 0.539
NCI-H2170 | 0.932 | 0.828 | 0.931 | 0.928 | 0.57 | 0.592 | 0.581 | 0.56 | 1.02 | 1.02 | 1.05 | 1.05 | 0.243 | 0.241 | 0.263 | 0.251 | 0.592 | 0.61 | 0.489 | 0.519
NCI-H2228 | 0.517 | 0.379 | 0.525 | 0.368 | 0.922 | 0.907 | 1.15 | 0.692 | 0.906 | 0.772 | 0.86 | 0.729 | 1.51 | 1.1 | 1.14 | 0.911 | 0.615 | 0.493 | 0.49 | 0.456
NCI-H2347 | 0.306 | 0.293 | 0.256 | 0.167 | 0.871 | 0.707 | 0.749 | 0.786 | 0.951 | 0.798 | 1.05 | 0.763 | 1.02 | 0.829 | 0.934 | 0.979 | 0.683 | 0.272 | 0.283 | 0.229
